{
  "source": "paper doi:10.1101/2025.02.19.639194v1",
  "about": "“Bioinformatics analysis identifies sequence determinants of enzymatic activity for the PHARC associated lipase ABHD12” (biorxiv, 2025)",
  "target": "T1, CG15111 (Drosophila melanogaster, UniProt A1ZBH2)",
  "T1 construct": "gene Dmel\\CG15111; full-length from adult fly cDNA, C-terminal FLAG tag, pRmHa3 vector, membrane fraction of transfected S2 cells",
  "T1 sequence (A1ZBH2 1-393)": "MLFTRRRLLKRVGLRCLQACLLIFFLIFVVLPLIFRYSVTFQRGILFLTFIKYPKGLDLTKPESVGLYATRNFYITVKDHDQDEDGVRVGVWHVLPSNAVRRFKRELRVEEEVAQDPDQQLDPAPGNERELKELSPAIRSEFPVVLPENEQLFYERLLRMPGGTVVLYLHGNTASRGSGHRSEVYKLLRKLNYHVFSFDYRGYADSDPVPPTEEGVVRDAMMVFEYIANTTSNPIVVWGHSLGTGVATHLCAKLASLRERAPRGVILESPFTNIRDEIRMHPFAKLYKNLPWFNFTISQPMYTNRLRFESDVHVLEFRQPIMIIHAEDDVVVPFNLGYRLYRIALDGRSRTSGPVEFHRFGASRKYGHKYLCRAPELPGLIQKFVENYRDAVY",
  "test": "LC-MS lyso-PS lipase assay, release of C17:[…] FFA",
  "type": "biochemical",
  "conditions": "100 uM substrate, 20 ug membrane fraction of S2 cells",
  "data": [
    {"compound": "CCCCCC/C=C\\CCCCCCCCC(=O)OC[C@@H](O)COP(=O)(O)OC[C@H](N)C(=O)O", "note": "[C17:1 lyso-PS]", "values": [
      {"measurement": "LC-MS lyso-PS lipase assay, release of C17:1 FFA", "result": "WT CG15111 had robust lyso-PS lipase activity"}
    ]}
  ]
}
